PubChem BioAssay AID1963444 (Molecular Pharmacology Branch, DTP, NCI, 2024)
Where “and” joins values, the source holds several entries; their conditions need not be identical. Identical values can stand only once.

System: HSSY-II complex spheroid growth, percent test/control
Assay: Anticancer human tumor HSSY-II cell line growth inhibition [Asc];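 also: spheroids exposed to drug for 7 days before reading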
Conditions: for viability, T/C: stronger effect = lower value
In short: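 Spheroid model: tumor line + HUVEC + hMSC. Single agents and combinations; top conc. at/near clinical Cmax (10 microM if undetermined), half-log dilutions. DMSO stocks at 800-fold test concentration.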

[1] = curve of first compound, second compound 0.01 µM
[2] = curve of first compound, second compound 0.0316 µM
[3] = curve of first compound, second compound 0.1 µM
[4] = curve of first compound, second compound 0.316 µM
[5] = curve of first compound, second compound 1 µM
[6] = second compound 0.01 µM, first compound 0.00949 µM
[7] = second compound 0.01 µM, first compound 0.03 µM
[8] = second compound 0.01 µM, first compound 0.0949 µM
[9] = second compound 0.01 µM, first compound 0.3 µM
[10] = second compound 0.01 µM, first compound 0.949 µM
[11] = second compound 0.01 µM, first compound 3 µM
[12] = second compound 0.0316 µM, first compound 0.00949 µM
[13] = second compound 0.0316 µM, first compound 0.03 µM
[14] = second compound 0.0316 µM, first compound 0.0949 µM
[15] = second compound 0.0316 µM, first compound 0.3 µM
[16] = second compound 0.0316 µM, first compound 0.949 µM
[17] = second compound 0.0316 µM, first compound 3 µM
[18] = second compound 0.1 µM, first compound 0.00949 µM
[19] = second compound 0.1 µM, first compound 0.03 µM
[20] = second compound 0.1 µM, first compound 0.0949 µM
[21] = second compound 0.1 µM, first compound 0.3 µM
[22] = second compound 0.1 µM, first compound 0.949 µM
[23] = second compound 0.1 µM, first compound 3 µM
[24] = second compound 0.316 µM, first compound 0.00949 µM
[25] = second compound 0.316 µM, first compound 0.03 µM
[26] = second compound 0.316 µM, first compound 0.0949 µM
[27] = second compound 0.316 µM, first compound 0.3 µM
[28] = second compound 0.316 µM, first compound 0.949 µM
[29] = second compound 0.316 µM, first compound 3 µM
[30] = second compound 1 µM, first compound 0.00949 µM
[31] = second compound 1 µM, first compound 0.03 µM
[32] = second compound 1 µM, first compound 0.0949 µM
[33] = second compound 1 µM, first compound 0.3 µM
[34] = second compound 1 µM, first compound 0.949 µM
[35] = second compound 1 µM, first compound 3 µM

CCN1CCN(Cc2ccc(Nc3ncc(F)c(-c4cc(F)c5nc(C)n(C(C)C)c5c4)n3)nc2)CC1
viability, T/C (compound 0.00316 µM): 102% and 74.4% and 98.4%
viability, T/C (compound 0.01 µM): 94.4% and 70.5% and 78.7%
viability, T/C (compound 0.0316 µM): 65.6% and 73.6% and 78.9%
viability, T/C (compound 0.1 µM): 59.6% and 44.7% and 74.7%
viability, T/C (compound 0.316 µM): 49.6% and 35.2% and 46.9%
viability, T/C (compound 1 µM): 27.2% and 30.8% and 28.5%
IC50 (curve of compound): 0.201 µM and 0.0805 µM and 0.328 µM

NC1CCC(NC2CC2c2ccccc2)CC1 (stereo unspecified)
viability, T/C (compound 0.000316 µM): 71.8% and 62.3% and 60.2%
viability, T/C (compound 0.001 µM): 68.3% and 66.5% and 58.3%
viability, T/C (compound 0.00316 µM): 58.7% and 61.8% and 52.4%
viability, T/C (compound 0.01 µM): 53.8% and 56.1% and 47%
viability, T/C (compound 0.0316 µM): 61% and 59.4% and 54.2%
viability, T/C (compound 0.1 µM): 59.8% and 53.7% and 49.7%
IC50 (curve of compound): > 0.1 µM

NC1CCC(NC2CC2c2ccccc2)CC1 (stereo unspecified) + CCN1C(C(=O)NC23CCC(C(=O)O)(CC2)CC3)C(c2cccc(Cl)c2F)C2(C(=O)Nc3cc(Cl)ccc32)C12CCCCC2
IC50 (curve of first compound, second compound 0.03 µM): > 0.1 µM
IC50 (curve of first compound, second compound 0.0949 µM): 0.00207 µM
IC50 (curve of first compound, second compound 0.3 µM): < 0.000316 µM
IC50 (curve of first compound, second compound 0.949 µM): < 0.000316 µM
IC50 (curve of first compound, second compound 3 µM): < 0.000316 µM
viability, T/C (second compound 0.03 µM, first compound 0.000316 µM): 61.3%
viability, T/C (second compound 0.03 µM, first compound 0.001 µM): 64%
viability, T/C (second compound 0.03 µM, first compound 0.00316 µM): 58.6%
viability, T/C (second compound 0.03 µM, first compound 0.01 µM): 59.8%
viability, T/C (second compound 0.03 µM, first compound 0.0316 µM): 55.8%
viability, T/C (second compound 0.03 µM, first compound 0.1 µM): 57%
viability, T/C (second compound 0.0949 µM, first compound 0.000316 µM): 51.2%
viability, T/C (second compound 0.0949 µM, first compound 0.001 µM): 51.1%
viability, T/C (second compound 0.0949 µM, first compound 0.00316 µM): 49.1%
viability, T/C (second compound 0.0949 µM, first compound 0.01 µM): 47.7%
viability, T/C (second compound 0.0949 µM, first compound 0.0316 µM): 51.1%
viability, T/C (second compound 0.0949 µM, first compound 0.1 µM): 44.3%
viability, T/C (second compound 0.3 µM, first compound 0.000316 µM): 27.9%
viability, T/C (second compound 0.3 µM, first compound 0.001 µM): 24.9%
viability, T/C (second compound 0.3 µM, first compound 0.00316 µM): 26.9%
viability, T/C (second compound 0.3 µM, first compound 0.01 µM): 23.3%
viability, T/C (second compound 0.3 µM, first compound 0.0316 µM): 25.6%
viability, T/C (second compound 0.3 µM, first compound 0.1 µM): 27%
viability, T/C (second compound 0.949 µM, first compound 0.000316 µM): 8.22%
viability, T/C (second compound 0.949 µM, first compound 0.001 µM): 6.71%
viability, T/C (second compound 0.949 µM, first compound 0.00316 µM): 6.88%
viability, T/C (second compound 0.949 µM, first compound 0.01 µM): 6.14%
viability, T/C (second compound 0.949 µM, first compound 0.0316 µM): 7.47%
viability, T/C (second compound 0.949 µM, first compound 0.1 µM): 6.92%
viability, T/C (second compound 3 µM, first compound 0.000316 µM): 1.71%
viability, T/C (second compound 3 µM, first compound 0.001 µM): 1.81%
viability, T/C (second compound 3 µM, first compound 0.00316 µM): 1.94%
viability, T/C (second compound 3 µM, first compound 0.01 µM): 1.61%
viability, T/C (second compound 3 µM, first compound 0.0316 µM): 1.43%
viability, T/C (second compound 3 µM, first compound 0.1 µM): 2.12%

CCN1C(C(=O)NC23CCC(C(=O)O)(CC2)CC3)C(c2cccc(Cl)c2F)C2(C(=O)Nc3cc(Cl)ccc32)C12CCCCC2 (stereo unspecified) + CNC(C)C(=O)NC1CN(S(=O)(=O)c2cccc(S(=O)(=O)N3CCC4CCC(C(=O)NC(c5ccccc5)c5ccccc5)N4C(=O)C(NC(=O)C(C)NC)C3)c2)CCC2CCC(C(=O)NC(c3ccccc3)c3ccccc3)N2C1=O
IC50 [1]: 0.0882 µM
IC50 [2]: 0.099 µM
IC50 [3]: 0.0819 µM
IC50 [4]: 0.0777 µM
IC50 [5]: 0.0677 µM
viability, T/C [6]: 96%
viability, T/C [7]: 82.6%
viability, T/C [8]: 47.9%
viability, T/C [9]: 14.6%
viability, T/C [10]: 2.75%
viability, T/C [11]: 0.77%
viability, T/C [12]: 84.7%
viability, T/C [13]: 65.1%
viability, T/C [14]: 55.9%
viability, T/C [15]: 14.8%
viability, T/C [16]: 1.52%
viability, T/C [17]: 0.58%
viability, T/C [18]: 90%
viability, T/C [19]: 81.2%
viability, T/C [20]: 44.6%
viability, T/C [21]: 13.4%
viability, T/C [22]: 1.69%
viability, T/C [23]: 0.35%
viability, T/C [24]: 95.7%
viability, T/C [25]: 85.1%
viability, T/C [26]: 41.8%
viability, T/C [27]: 11.2%
viability, T/C [28]: 1%
viability, T/C [29]: 0.23%
viability, T/C [30]: 82.9%
viability, T/C [31]: 74.4%
viability, T/C [32]: 39.8%
viability, T/C [33]: 9.04%
viability, T/C [34]: 1.32%
viability, T/C [35]: 0.3%

Cc1nc(N2CCC3(CC2)COC(C)C3N)c(CO)nc1Sc1ccnc(N)c1Cl (stereo unspecified) + CNC(C)C(=O)NC1CN(S(=O)(=O)c2cccc(S(=O)(=O)N3CCC4CCC(C(=O)NC(c5ccccc5)c5ccccc5)N4C(=O)C(NC(=O)C(C)NC)C3)c2)CCC2CCC(C(=O)NC(c3ccccc3)c3ccccc3)N2C1=O
IC50 (curve of first compound, second compound 0.00316 µM): > 3 µM
IC50 [1]: > 3 µM
IC50 [2]: > 3 µM
IC50 [3]: > 3 µM
IC50 [4]: > 3 µM
IC50 [5]: > 3 µM
viability, T/C (second compound 0.00316 µM, first compound 0.00949 µM): 104%
viability, T/C (second compound 0.00316 µM, first compound 0.03 µM): 102%
viability, T/C (second compound 0.00316 µM, first compound 0.0949 µM): 90.9%
viability, T/C (second compound 0.00316 µM, first compound 0.3 µM): 92.6%
viability, T/C (second compound 0.00316 µM, first compound 0.949 µM): 90.7%
viability, T/C (second compound 0.00316 µM, first compound 3 µM): 69.1%
viability, T/C [6]: 105%
viability, T/C [7]: 97.2%
viability, T/C [8]: 90.8%
viability, T/C [9]: 93.7%
viability, T/C [10]: 88.1%
viability, T/C [11]: 66.9%
viability, T/C [12]: 101%
viability, T/C [13]: 91.2%
viability, T/C [14]: 95.4%
viability, T/C [15]: 85.8%
viability, T/C [16]: 90.7%
viability, T/C [17]: 74.9%
viability, T/C [18]: 96.9%
viability, T/C [19]: 96.4%
viability, T/C [20]: 97.5%
viability, T/C [21]: 95.6%
viability, T/C [22]: 84.3%
viability, T/C [23]: 70.8%
viability, T/C [24]: 93.5%
viability, T/C [25]: 94.2%
viability, T/C [26]: 90.2%
viability, T/C [27]: 85.4%
viability, T/C [28]: 78.7%
viability, T/C [29]: 72.5%
viability, T/C [30]: 97.5%
viability, T/C [31]: 92.8%
viability, T/C [32]: 92.7%
viability, T/C [33]: 84.7%
viability, T/C [34]: 87.6%
viability, T/C [35]: 76%
